From patent publication US20050038072A1, “Nitrogeneous cyclic ketone derivative, process for producing the same, and use” (Takeda Chemical Industries, Ltd., priority 2001, published 2005)
Counter-ions that a name gives are not always drawn.

Experiments:
[1] = target: T1, substance P receptor (Homo sapiens, UniProt P25103); experiment: Radioligand receptor binding inhibiting activity (binding inhibitory activity using receptor from human lymphoblast cell (IM-9)); conditions: radioligand [125I]-labeled substance P (125I-BHSP), 25° C., 30 minutes
T1 construct: endogenous in cells; host or cells: IM-9 human lymphoblast cells (membrane preparation)
T1 sequence (P25103 whole entry): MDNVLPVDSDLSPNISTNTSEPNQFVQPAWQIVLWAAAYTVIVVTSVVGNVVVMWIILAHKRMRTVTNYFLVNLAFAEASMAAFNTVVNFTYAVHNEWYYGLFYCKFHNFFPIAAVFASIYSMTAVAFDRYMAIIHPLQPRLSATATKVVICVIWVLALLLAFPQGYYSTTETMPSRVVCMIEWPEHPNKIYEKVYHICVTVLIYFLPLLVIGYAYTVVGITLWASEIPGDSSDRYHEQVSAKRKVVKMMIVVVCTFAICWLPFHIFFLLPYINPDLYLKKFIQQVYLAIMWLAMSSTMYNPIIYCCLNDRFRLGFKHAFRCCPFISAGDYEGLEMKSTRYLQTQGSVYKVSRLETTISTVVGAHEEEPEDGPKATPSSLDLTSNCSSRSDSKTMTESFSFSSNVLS
Method: Radioligand receptor binding inhibiting activity (binding inhibitory activity using receptor from human lymphoblast cell (IM-9))
A modified method by M. A. Cascieri et al (Molecular Pharmacology, Vol. 42, p. 458 (1992)) was employed. The receptor was prepared from a human lymphoblast cell (IM-9). After inoculation of IM-9 cells (2×10^5 cells/ml), the cells were cultured for 3 days (1L), and then the culture was centrifuged at 500×G for 5 minutes to obtain a cell pellet. The resultant pellet was washed once with a phosphate buffer (FLOW LABORATORIES, CAT. No. 28-103-05), fractured in 30 ml of a 50 mM Tris-HCl buffer (pH 7.4) containing 120 mM sodium chloride, 5 mM potassium chloride, 2 μg/ml chymostatin, 40 μg/ml bacitracin, 5 μg/ml phosphoramidone, 0.5 mM phenylmethylsulfonyl fluoride and 1 mM ethylenediamine tetraacetic acid using a polytron homogenizer (Kinematika, Germany), and centrifuged at 40,000×G for 20 minutes. The separated material was washed twice with 30 ml of the buffer solution described above and stored frozen as a receptor standard preparation (−80° C.)
This preparation was suspended in a reaction buffer [50 mM Tris-HCl buffer (pH 7.4), 0.02% bovine serum albumin, 1 mM phenylmethylsulfonyl fluoride, 2 μg/ml of chymostatin, 40 μg/ml bacitracin, 3 mM manganese chloride] at a protein concentration of 0.5 mg/ml and a 100 μl portion was used for the reaction. The sample, 125I-BHSP (0.46 KBq) was also added and the mixture was reacted in a 0.2 ml reaction buffer at 25° C. for 30 minutes. A non-specific binding level was measured by adding substance P at 2×10^−6 M.
After the reaction, a Cell Harvester [290PHD manufactured by Cambridge Technology, Inc, USA] was used to conduct a rapid filtration over a glass filter [GF/B manufactured by Whatman, USA] whereby terminating the reaction, followed by washing three times with 250 μl of a 50 mM Tris-HCl buffer solution (pH 7.4) containing 0.02% bovine serum albumin. Then, the radioactivity remaining on the filter was counted with a gamma counter. The filter was used after immersing in a 0.1% polyethylene imine over a whole day and night followed by drying in air.
The radioligand means [^125I]-labeled substance P.

Row | Compound | melting point | IC50 [1] [nM]
1 | O=C1CCNCC1C(c1ccccc1)c1ccccc1F (centres unmarked) (as salt: hydrochloride) | 204 to 205 °C | –
2 | CCOc1ccccc1CN1CCC(=O)C(C(c2ccc(F)cc2)c2ccc(F)cc2)C1 (centres unmarked) [Example 98, 3-[Bis(4-fluorophenyl)methyl]-1-(2-ethoxybenzyl)-4-piperidinone] | – | 0.85
3 | COc1ccc([N+](=O)[O-])cc1CN1CCC(=O)C(C(c2ccccc2)c2ccccc2)C1 (centres unmarked) [Example 176, 3-Benzhydryl-1-(2-methoxy-5-nitrobenzyl)-4-piperidinone] | 119 to 120 °C | –
4 | COc1ccc2ccccc2c1CN1CCC(=O)C(C(c2ccc(F)cc2)c2ccc(F)cc2)C1 (centres unmarked) [Example 148, 3-[Bis(4-fluorophenyl)methyl]-1-[(2-methoxy-1-naphthyl)methyl]-4-piperidinone] | 125 to 126 °C | –
5 | COc1ccc(N(S(C)(=O)=O)S(C)(=O)=O)cc1CN1CCC(=O)C(C(c2ccccc2)c2ccccc2)C1 (centres unmarked) [Example 178, N-[3-[(3-Benzhydryl-4-oxo-1-piperidinyl)methyl]-4-methoxyphenyl]-N-(methylsulfonyl)methanesulfonamide] | 132 to 135 °C | –
6 | O=C1CCN(Cc2ccccc2)CC1C(c1ccccc1)c1ccccc1F (centres unmarked) (as salt: hydrochloride) [Example 157, 1-Benzyl-3-[(2-fluorophenyl)(phenyl)methyl]-4-piperidinone] | 214 to 215 °C | –
7 | O=C1CCN(Cc2cc([N+](=O)[O-])ccc2O)CC1C(c1ccccc1)c1ccccc1 (centres unmarked) [Example 184, 3-Benzhydryl-1-(2-hydroxy-5-nitrobenzyl)-4-piperidinone] | 177 to 178 °C | –
8 | COc1ccc(OC(F)(F)F)cc1CN1CCC(=O)C(C(c2ccccc2)c2ccccc2)C1 (centres unmarked) [Example 168, 3-Benzhydryl-1-[2-methoxy-5-(trifluoromethoxy)benzyl]-4-piperidinone] | – | 0.34
9 | O=C1CNCCC1C1c2ccccc2CCc2ccccc21 (centres unmarked) (as salt: hydrochloride) [Example 198, 4-(10,11-Dihydro-5H-dibenzo[a,d][7]annulen-5-yl)-3-piperidinone] | 196 to 198 °C (dec.) | –
10 | COc1c(CN2CCC(=O)C(C(c3ccccc3)c3ccccc3)C2)cc(C(C)(C)C)cc1C(C)(C)C (centres unmarked) [Example 161, 3-Benzhydryl-1-(3,5-di-tert-butyl-2-methoxybenzyl)-4-piperidinone] | 136 to 138 °C | –
11 | COc1ccc(OC(F)(F)F)cc1CN1CCC(=O)C(C(c2ccccc2)c2ccccc2)C1 (centres unmarked) (as salt: hydrochloride) [Example 168, 3-Benzhydryl-1-[2-methoxy-5-(trifluoromethoxy)benzyl]-4-piperidinone] | 174 to 175 °C | –
12 | O=C1CCN(Cc2ccccc2)CC1C(c1ccc(Cl)cc1)c1ccccc1Cl (centres unmarked) (as salt: hydrochloride) [Example 158, 1-Benzyl-3-[(2-chlorophenyl)(4-chlorophenyl)methyl]-4-piperidinone] | 190 to 191 °C | –
13 | COc1ccc(Br)cc1CN1CCC(=O)C(C(c2ccc(F)cc2)c2ccc(F)cc2)C1 (single isomer, unassigned; (-)) [Example 163, (−)-3-[Bis(4-fluorophenyl)methyl]-1-(5-bromo-2-methoxybenzyl)-4-piperidinone] | – | 0.62
14 | O=C1CN(Cc2ccccc2)CCC1C(c1ccc(F)cc1)c1ccc(F)cc1 (centres unmarked) (as salt: hydrochloride) [Example 195, 1-Benzyl-4-[bis(4-fluorophenyl)methyl]-3-piperidinone] | 177.5 to 179 °C | –
15 | CCOc1ccccc1CN1CCC(=O)C(C(c2ccccc2)c2ccccc2)C1 (centres unmarked) [Example 99, 3-Benzhydryl-1-(2-ethoxybenzyl)-4-piperidinone] | – | 0.44
16 | CCOc1ccc([N+](=O)[O-])cc1CN1CCC(=O)C(C(c2ccccc2)c2ccccc2)C1 (centres unmarked) [Example 185, 3-Benzhydryl-1-(2-ethoxy-5-nitrobenzyl)-4-piperidinone] | – | 0.29
17 | COc1ccc(NS(C)(=O)=O)cc1CN1CCC(=O)C(C(c2ccccc2)c2ccccc2)C1 (centres unmarked) [Example 183, N-[3-[(3-Benzhydryl-4-oxo-1-piperidinyl)methyl]-4-methoxyphenyl]methanesulfonamide] | 132 to 135 °C | 0.26
18 | CCOc1cccc(OC)c1CN1CCC(=O)C(C(c2ccccc2)c2ccccc2)C1 (centres unmarked) [Example 170, 3-Benzhydryl-1-(2-ethoxy-6-methoxybenzyl)-4-piperidinone] | 137 to 138 °C | –
19 | COc1ccc(C(C)C)cc1CN1CCC(=O)C(C(c2ccccc2)c2ccccc2)C1 (centres unmarked) [Example 175, 3-Benzhydryl-1-(5-isopropyl-2-methoxybenzyl)-4-piperidinone] | – | 0.42
